Data reported in US20160002248A1, “GLS1 INHIBITORS FOR TREATING DISEASE” (Board of Regents, The University of Texas System, priority 2014, published 2016).

What was measured:
[1] = target: T1, purified recombinant human GAC (GLS1) (Homo sapiens, UniProt O94925); experiment: GLS1 Enzymatic Activity Assay (dual-coupled enzymatic assay); type: biochemical
T1 sequence (O94925 55-598 isoform O94925-3 limits assumed): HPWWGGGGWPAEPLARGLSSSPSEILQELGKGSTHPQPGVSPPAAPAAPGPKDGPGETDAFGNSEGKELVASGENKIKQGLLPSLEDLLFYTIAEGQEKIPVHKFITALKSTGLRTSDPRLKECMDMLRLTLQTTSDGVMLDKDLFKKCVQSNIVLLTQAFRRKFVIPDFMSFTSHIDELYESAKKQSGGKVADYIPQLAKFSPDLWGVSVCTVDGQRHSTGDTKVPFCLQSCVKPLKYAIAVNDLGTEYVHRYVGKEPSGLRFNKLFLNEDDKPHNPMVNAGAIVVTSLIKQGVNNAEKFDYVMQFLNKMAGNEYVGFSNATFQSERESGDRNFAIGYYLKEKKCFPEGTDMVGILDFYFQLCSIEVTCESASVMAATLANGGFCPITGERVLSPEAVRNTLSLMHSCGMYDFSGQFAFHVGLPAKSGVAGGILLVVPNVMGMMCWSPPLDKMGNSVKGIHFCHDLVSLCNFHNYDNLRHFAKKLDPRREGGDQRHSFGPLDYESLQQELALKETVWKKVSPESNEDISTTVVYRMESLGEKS
In short: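 In this coupled fluorometric format, phosphate-activated GAC (2 nM, 50 mM phosphate) is pre-exposed to compound for 10 min before 1 mM glutamine addition. Product is tracked as resorufin (530/590 nm) over time or at 20 min, and potency is derived by logistic fitting.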

A549 cells = experiment: Proliferation Assay (A549 cell viability, Cell Titer Fluor); type: cell-based; conditions: Homo sapiens, 72 hours
In short: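 1000 A549 cells/well, RPMI 1640/10% dialyzed FBS, 24 h attach; compound 72 h, 0.5% DMSO, 37 °C/5% CO2; Cell Titer Fluor fluorescence; EC50 via 4-parameter logistic.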

SMILES	IC50 [1] [nM]	EC50 (A549 cells) [nM]
O=C(NCc1ccc(C(F)(F)F)cn1)c1cn(CCCCc2cc3c(-c4ccc(F)cc4F)c(C4CC4)[nH]c3nn2)nn1 [Example 218, 1-{4-[6-cyclopropyl-5-(2,4-difluorophenyl)-7H-pyrrolo[2,3-c]pyridazin-3-yl]butyl}-N-{[5-(trifluoromethyl)pyridin-2-yl]methyl}-1H-1,2,3-triazole-4-carboxamide]	< 100	100 to 500
O=C(NCc1cccc(C(F)(F)F)n1)c1cn(CCCCc2cc3c(-c4ccc(F)cc4F)c(C4CC4)[nH]c3nn2)nn1 [Example 220, 1-{4-[6-cyclopropyl-5-(2,4-difluorophenyl)-7H-pyrrolo[2,3-c]pyridazin-3-yl]butyl}-N-{[6-(trifluoromethyl)pyridin-2-yl]methyl}-1H-1,2,3-triazole-4-carboxamide]	< 100	100 to 500
O=C(NCc1cncc(C(F)(F)F)c1)c1cn(CCCCc2cc3c(-c4ccc(F)cc4F)c(C4CC4)[nH]c3nn2)nn1 [Example 221, 1-{4-[6-cyclopropyl-5-(2,4-difluorophenyl)-7H-pyrrolo[2,3-c]pyridazin-3-yl]butyl}-N-{[5-(trifluoromethyl)pyridin-3-yl]methyl}-1H-1,2,3-triazole-4-carboxamide]	< 100	< 100
O=C(NCc1cc(OC(F)(F)F)ccc1F)c1cn(CCCCc2cc3cc(C4CN(C(=O)C5CCC5)C4)[nH]c3nn2)nn1 [Example 223, 1-{4-[6-(1-cyclobutanecarbonylazetidin-3-yl)-7H-pyrrolo[2,3-c]pyridazin-3-yl]butyl}-N-{[2-fluoro-5-(trifluoromethoxy)phenyl]methyl}-1H-1,2,3-triazole-4-carboxamide]	< 100	< 100
O=C(NCc1cc(OC(F)(F)F)ccc1F)c1cn(CCCCc2cc3cc(C4CN(C(=O)C5(C(F)(F)F)CC5)C4)[nH]c3nn2)nn1 [Example 225, N-{[2-fluoro-5-(trifluoromethoxy)phenyl]methyl}-1-[4-(6-{1-[1-(trifluoromethyl)cyclopropane-carbonyl]azetidin-3-yl}-7H-pyrrolo[2,3-c]pyridazin-3-yl)butyl]-1H-1,2,3-triazole-4-carboxamide]	< 100	< 100
O=C(NCc1cc(OC(F)(F)F)ccc1F)c1cn(CCCCc2cc3cc(C4CN(C(=O)C5CC(F)(F)C5)C4)[nH]c3nn2)nn1 [Example 226, 1-(4-{6-[1-(3,3-difluorocyclobutanecarbonyl)azetidin-3-yl]-7H-pyrrolo[2,3-c]pyridazin-3-yl}butyl)-N-{[2-fluoro-5-(trifluoromethoxy)phenyl]methyl}-1H-1,2,3-triazole-4-carboxamide]	< 100	100 to 500
CC(C)(F)C(=O)N1CC(c2cc3cc(CCCCn4cc(C(=O)NCc5cc(OC(F)(F)F)ccc5F)nn4)nnc3[nH]2)C1 [Example 227, 1-(4-{6-[1-(2-fluoro-2-methylpropanoyl)azetidin-3-yl]-7H-pyrrolo[2,3-c]pyridazin-3-yl}butyl)-N-{[2-fluoro-5-(trifluoromethoxy)phenyl]methyl}-1H-1,2,3-triazole-4-carboxamide]	< 100	< 100
CC(C)(C(=O)N1CC(c2cc3cc(CCCCn4cc(C(=O)NCc5cc(OC(F)(F)F)ccc5F)nn4)nnc3[nH]2)C1)C(F)(F)F [Example 229, N-(2-fluoro-5-(trifluoromethoxy)benzyl)-1-(4-(6-(1-(3,3,3-trifluoro-2,2-dimethylpropanoyl)azetidin-3-yl)-7H-pyrrolo[2,3-c]pyridazin-3-yl)butyl)-1H-1,2,3-triazole-4-carboxamide]	< 100	< 100
CC(C)S(=O)(=O)N1CC(c2cc3cc(CCCCn4cc(C(=O)NCc5cc(OC(F)(F)F)ccc5F)nn4)nnc3[nH]2)C1 [Example 230, N-{[2-fluoro-5-(trifluoromethoxy)phenyl]methyl}-1-(4-{6-[1-(propane-2-sulfonyl)azetidin-3-yl]-7H-pyrrolo[2,3-c]pyridazin-3-yl}butyl)-1H-1,2,3-triazole-4-carboxamide]	< 100	100 to 500
Cc1ccc(CNC(=O)c2cn(CCCCc3cc4cc(-c5ccccc5Cl)[nH]c4nn3)nn2)cn1 [Example 236, 1-{4-[6-(2-chlorophenyl)-7H-pyrrolo[2,3-c]pyridazin-3-yl]butyl}-N-[(6-methylpyridin-3-yl)methyl]-1H-1,2,3-triazole-4-carboxamide]	< 100	100 to 500

More lines, now with the values ahead:

IC50 [1] [nM]	EC50 (A549 cells) [nM]	SMILES
< 100	< 100	O=C(NCc1cc(C(F)(F)F)ccn1)c1cn(CCCCc2cc3c(-c4ccc(F)cc4F)c(C4CC4)[nH]c3nn2)nn1 [Example 219, 1-{4-[6-cyclopropyl-5-(2,4-difluorophenyl)-7H-pyrrolo[2,3-c]pyridazin-3-yl]butyl}-N-{[4-(trifluoromethyl)pyridin-2-yl]methyl}-1H-1,2,3-triazole-4-carboxamide]
< 100	100 to 500	O=C(NCc1ccc(CF)nc1)c1cn(CCCCc2cc3c(-c4ccc(F)cc4F)c(C4CC4)[nH]c3nn2)nn1 [Example 222, 1-{4-[6-cyclopropyl-5-(2,4-difluorophenyl)-7H-pyrrolo[2,3-c]pyridazin-3-yl]butyl}-N-{[6-(fluoromethyl)pyridin-3-yl]methyl}-1H-1,2,3-triazole-4-carboxamide]
< 100	100 to 500	O=C(NCc1cc(OC(F)(F)F)ccc1F)c1cn(CCCCc2cc3cc(C4CN(C(=O)C5CC5)C4)[nH]c3nn2)nn1 [Example 224, 1-{4-[6-(1-cyclopropanecarbonylazetidin-3-yl)-7H-pyrrolo[2,3-c]pyridazin-3-yl]butyl}-N-{[2-fluoro-5-(trifluoromethoxy)phenyl]methyl}-1H-1,2,3-triazole-4-carboxamide]
< 100	< 100	COc1ccccc1-c1cc2cc(CCCCn3cc(C(=O)NCc4ccc(C)nc4)nn3)nnc2[nH]1 [Example 228, 1-{4-[6-(2-methoxyphenyl)-7H-pyrrolo[2,3-c]pyridazin-3-yl]butyl}-N-[(6-methylpyridin-3-yl)methyl]-1H-1,2,3-triazole-4-carboxamide]
< 100	100 to 500	Cc1ccc(CNC(=O)c2cn(CC(F)CCc3cc4cc(C5CC5)[nH]c4nn3)nn2)cn1 (stereo not drawn) [Example 231, 1-(4-{6-cyclopropyl-7H-pyrrolo[2,3-c]pyridazin-3-yl)-2-fluorobutyl)-N-[(6-methylpyridin-3-yl)methyl]-1H-1,2,3-triazole-4-carboxamide]
< 100	100 to 500	Cc1ccc(CNC(=O)c2cn(CCCCc3cc4cc(-c5cc(F)cc(F)c5)[nH]c4nn3)nn2)cn1 [Example 232, 1-{4-[6-(3,5-difluorophenyl)-7H-pyrrolo[2,3-c]pyridazin-3-yl]butyl}-N-[(6-methylpyridin-3-yl)methyl]-1H-1,2,3-triazole-4-carboxamide]
< 100	< 100	O=C(NCc1cc(OC(F)(F)F)ccc1F)c1cn(CCCCc2cc3cc(C4CN(C(=O)OC5CCC5)C4)[nH]c3nn2)nn1 [Example 233, cyclobutyl 3-(3-{4-[4-({[2-fluoro-5-(trifluoromethoxy)phenyl]methyl}carbamoyl)-1H-1,2,3-triazol-1-yl]butyl}-7H-pyrrolo[2,3-c]pyridazin-6-yl)azetidine-1-carboxylate]
< 100	< 100	O=C(NCc1cc(OC(F)(F)F)ccc1F)c1cn(CCCCc2cc3cc(C4CN(S(=O)(=O)C(F)(F)F)C4)[nH]c3nn2)nn1 [Example 234, N-{[2-fluoro-5-(trifluoromethoxy)phenyl]methyl}-1-{4-[6-(1-trifluoromethanesulfonyl-azetidin-3-yl)-7H-pyrrolo[2,3-c]pyridazin-3-yl]butyl}-1H-1,2,3-triazole-4-carboxamide]
< 100	500 to 5000	O=C(NCc1cc(OC(F)(F)F)ccc1F)c1cn(CCCCc2cc3cc(C4CN(C(=O)C5COC5)C4)[nH]c3nn2)nn1 [Example 235, N-{[2-fluoro-5-(trifluoromethoxy)phenyl]methyl}-1-(4-{6-[1-(oxetane-3-carbonyl)azetidin-3-yl]-7H-pyrrolo[2,3-c]pyridazin-3-yl}butyl)-1H-1,2,3-triazole-4-carboxamide]
< 100	100 to 500	COCCOC(=O)N1CC(c2cc3cc(CCCCn4cc(C(=O)NCc5cc(OC(F)(F)F)ccc5F)nn4)nnc3[nH]2)C1 [Example 237, 2-methoxyethyl 3-(3-{4-[4-({[2-fluoro-5-(trifluoromethoxy)phenyl]methyl}carbamoyl)-1H-1,2,3-triazol-1-yl]butyl}-7H-pyrrolo[2,3-c]pyridazin-6-yl)azetidine-1-carboxylate]
< 100	< 100	O=C(NCc1cc(OC(F)(F)F)ccc1F)c1cn(CCCCc2cc3cc(C4CN(C(=O)Cc5ccccc5)C4)[nH]c3nn2)nn1 [Example 238, N-{[2-fluoro-5-(trifluoromethoxy)phenyl]methyl)-1-(4-{6-[1-(2-phenylacetyl)azetidin-3-yl]-7H-pyrrolo[2,3-c]pyridazin-3-yl}butyl)-1H-1,2,3-triazole-4-carboxamide]
